From patent US8399515B2, “Five and fifteen carbon fatty acids for treating metabolic disorders and as nutritional supplements” (Baylor Research Institute, priority 2003, dated 2013)
“And” between values parts separate entries of the source, which are not always exact repeats. Equal values may be shown once.

Experiments:
[1] = tested on: VLCAD patient; assay: Meal test with triheptanoin or tripentanoin in a VLCAD patient; assay type: in vivo, human; set-up: Myristenoylcarnitine Level: unit not given here; conditions: for Myristenoylcarnitine Level / Propionylcarnitine Level: blood
Text: (§1) A VLCAD patient and an SCAD patient, both of whom had gastrostomy sites for enteral administration, each were provided with separate meals containing equimolar amounts of triheptanoin (C7) and tripentanoin (C5) at different times on the same day. Each patient was given the amount in 1 of 4 daily meals equivalent to a diet of 3 gms/Kg/day or about 30% of total Kcal as the triglyceride. Serial blood samples were obtained hourly and individual urines were collected at baseline and during the meal.
(§2) The patient with VLCAD (FIG. 3) was monitored over a 3 hour interval and the SCAD patient was monitored for 4 hours after beginning the meal. […] One way the VLCAD patient was monitored was for myristenoylcamitine (cis-5-C14:1), which reflects oxidation of oleate and is therefore an indication of ongoing lipolysis during the meal tests (it is not derived from either C7 or C5). […] These changes are not observed with even-carbon triglycerides.

[2] = tested on: fibroblasts from patients with VLCAD deficiency, non-cardiac milder phenotype; assay: Propionylcarnitine from oxidation of odd-carbon fatty acids in VLCAD (non-cardiac) fibroblasts; assay type: cell-based, human
Method: (§3) Fibroblasts obtained from patients with inherited defects of mitochondrial fat oxidation were cultured in the presence of omega deuterated odd-carbon numbered fatty acids, as described in Roe, C. R., Sweetman, L., Roe, D. S., David, F., Brunengraber, H., “Effective Dietary Treatment of Cardiomyopathy & Rhabdomyolysis in Long-Chain Fat Oxidation Disorders using an Anaplerotic Odd-Chain Triglyceride,” J. Clin. Invest. 110 (2): 259-269 (2002).
(§4) The data in Table 1 represents testing of cultured fibroblasts derived from ten patients afflicted with Very-long-chain acyl-CoA dehydrogenase (VLCAD) deficiency (six patients with the severe cardiac form and four with the non-cardiac milder phenotype), two patients with Mitochondrial Trifunctional Protein (MTP) deficiency, five patients having L-3-hydroxy-acyl-CoA dehydrogenase (LCHAD) deficiency and three patients with Short-chain acyl-CoA dehydrogenase (SCAD) deficiency.

[3] = tested on: control / normal fibroblasts; assay: Fate of odd-carbon fatty acids in control (normal) fibroblasts; assay type: cell-based, human; conditions: NORMAL fibroblasts
Method: Fibroblasts obtained from patients with inherited defects of mitochondrial fat oxidation were cultured in the presence of omega deuterated odd-carbon numbered fatty acids, as described in Roe, C. R., Sweetman, L., Roe, D. S., David, F., Brunengraber, H., “Effective Dietary Treatment of Cardiomyopathy & Rhabdomyolysis in Long-Chain Fat Oxidation Disorders using an Anaplerotic Odd-Chain Triglyceride,” J. Clin. Invest. 110 (2): 259-269 (2002). […]

[4] = tested on: fibroblasts from patients with inherited defects of mitochondrial fat oxidation; assay: Propionylcarnitine production in all fat-oxidation-defective fibroblast cell lines (comparison in words); assay type: cell-based, human; conditions: all VLCAD, MTP, LCHAD, SCAD cell lines; C5 versus C7; C15 versus C5 or C7
Method: as §3, §4

[5] = tested on: fibroblasts from patients with Very-long-chain acyl-CoA dehydrogenase (VLCAD) deficiency, severe cardiac form; assay: Propionylcarnitine from oxidation of odd-carbon fatty acids in VLCAD (cardiac) fibroblasts; assay type: cell-based, human
Method: as §3, §4

[6] = tested on: fibroblasts from patients with Short-chain acyl-CoA dehydrogenase (SCAD) deficiency; assay: Propionylcarnitine from oxidation of odd-carbon fatty acids in SCAD fibroblasts; assay type: cell-based, human
Method: as §3, §4

[7] = tested on: fibroblasts from patients with Mitochondrial Trifunctional Protein (MTP) deficiency; assay: Propionylcarnitine from oxidation of odd-carbon fatty acids in MTP fibroblasts; assay type: cell-based, human
Method: as §3, §4

[8] = tested on: fibroblasts from patients with L-3-hydroxy-acyl-CoA dehydrogenase (LCHAD) deficiency; assay: Propionylcarnitine from oxidation of odd-carbon fatty acids in LCHAD fibroblasts; assay type: cell-based, human
Method: as §3, §4

[9] = tested on: MCAD-deficient fibroblasts; assay: Fate of odd-carbon fatty acids in MCAD-deficient fibroblasts; assay type: cell-based, human
Method: as §3
Fibroblasts from four patients with MCAD deficiency and one heterozygote (carrier) indicate that odd-carbon fatty acids containing more than seven carbons can not be effectively used in that disease. […]

[10] = tested on: SCAD patient; assay: Meal test with triheptanoin or tripentanoin in a SCAD patient; assay type: in vivo, human
Text: as §1, §2
The second patient with SCAD deficiency (FIG. 4) had been receiving the triheptanoin diet for more than 2 years. This disorder is due to an inherited deficiency of butyryl-CoA dehydrogenase (SCAD) and is known to oxidize even carbon fatty acids of 4-6 carbon chain length.
In FIG. 4, C7-C3 represents the blood levels of C3 derived from C7; and C5-C3 represents the blood levels of C3 derived from C5, C7-C5 represents blood levels of pentanoylcarnitine (C5) derived from C7 meals and C5-C5 represents blood levels of pentanoylcarnitine (C5) derived from C5 meals. […] C7-C4 and C5-C4 represent the levels of the disease-specific acylcarnitine (butyrylcarnitine [C4]) observed in SCAD deficiency. […] This increased quantity of C3 corresponds to those observed for SCAD deficiency in the fibroblast studies above shown in Table 1.

[11] = VLCAD non-cardiac fibroblasts, one line per patient
[12] = average over VLCAD non-cardiac cell lines
[13] = VLCAD cardiac fibroblasts, one line per patient
[14] = average over VLCAD cardiac cell lines
[15] = SCAD fibroblasts, one line per patient
[16] = MTP fibroblasts, one line per patient
[17] = LCHAD fibroblasts, one line per patient

Question: Which “Myristenoylcarnitine Level” value ([1]; time 0 hours, cis-5-C14:1, marker of lipolysis) does the source give for `CCCCC(=O)O` [C5, n-pentanoic acid] here?
Answer: Its value is 3.07.

Question: What about the “Propionylcarnitine Level” value ([1]; time 0 hours, enteral meal via gastrostomy) of the same compound?
Answer: Its value is 1.38.

Question: What about the “Myristenoylcarnitine Level” value ([1]; time 1 hours) of the same compound?
Answer: Its value is 2.89.

Question: And the “Propionylcarnitine Level” value ([1]; time 1 hours)?
Answer: The value was 3.15.

Question: What about the “Myristenoylcarnitine Level” value ([1]; time 2 hours) of the same compound?
Answer: Its value is 2.04.

Question: And the “Propionylcarnitine Level” value ([1]; time 2 hours)?
Answer: Its value is 3.51.

Question: What about the “Myristenoylcarnitine Level” value ([1]; time 3 hours) of the same compound?
Answer: The value was 3.39.

Question: And the “Propionylcarnitine Level” value ([1]; time 3 hours)?
Answer: Its value is 5.63.

Question: What about the “Clinical or biochemical toxicity” value ([1]; meal test, 3 hour interval) of the same compound?
Answer: The value was “no clinical or biochemical toxicity”.

Question: And the “Ratio: C5/C7 (propionylcarnitine)” value [2, 11]?
Answer: The value was 2.0 and 1.4 (2×) and 2.1.

Question: And the “Ratio: C5/C15 (propionylcarnitine)” value [2, 11]?
Answer: Its value is 2.7 and 1.5 and 1.4 and 1.7.

Question: What about the “Propionylcarnitine from oxidation of fatty acid” value ([2]; VLCAD non-cardiac fibroblasts, one line per patient, 72 hours incubation) of the same compound?
Answer: The value was 44.4 nmol/mg Protein/72 hours and 28.3 nmol/mg Protein/72 hours and 51.8 nmol/mg Protein/72 hours and 19.7 nmol/mg Protein/72 hours.

Question: What about the “AVG. Ratio: C5/C7” value [2, 12] of the same compound?
Answer: Its value is “AVG. 1.7”.

Question: What about the “AVG. Ratio: C5/C15” value [2, 12] of the same compound?
Answer: Its value is “AVG. 1.8”.

Question: And the “Propionylcarnitine from odd carbon precursor” value [3]?
Answer: The value was 25.8 nmol/mg Protein/72 hours.

Question: What about the “Quantity of propionylcarnitine produced, compared with the other odd-carbon fatty acids” value [4] of the same compound?
Answer: The value was “consistently greater quantities of propionylcarnitine”.

Question: What about the “Ratio: C5/C7 (propionylcarnitine)” value [5, 13] of the same compound?
Answer: The value was 1.6 (2×) and 2.1 and 1.5 and 1.7 and 2.0.

Question: What about the “Ratio: C5/C15 (propionylcarnitine)” value [5, 13] of the same compound?
Answer: The value was 4.0 and 5.2 and 3.1 and 3.5 and 5.3 and 5.1.

Question: And the “Propionylcarnitine from oxidation of fatty acid” value ([5]; VLCAD cardiac fibroblasts, one line per patient, 72 hours incubation)?
Answer: The value was 47.0 nmol/mg Protein/72 hours and 27.2 nmol/mg Protein/72 hours and 67.8 nmol/mg Protein/72 hours and 28.2 nmol/mg Protein/72 hours and 34.7 nmol/mg Protein/72 hours and 50.6 nmol/mg Protein/72 hours.

Question: And the “AVG. Ratio: C5/C7” value [5, 14]?
Answer: The value was “AVG. 1.8”.

Question: What about the “AVG. Ratio: C5/C15” value [5, 14] of the same compound?
Answer: Its value is “AVG. 4.4”.

Question: What about the “Ratio: C5/C7 (propionylcarnitine)” value [6, 15] of the same compound?
Answer: The value was 1.4 (2×) and 1.2.

Question: What about the “Ratio: C5/C15 (propionylcarnitine)” value [6, 15] of the same compound?
Answer: Its value is 1.4 (2×) and 1.3.

Question: What about the “Propionylcarnitine from oxidation of fatty acid” value ([6]; SCAD fibroblasts, one line per patient, 72 hours incubation) of the same compound?
Answer: Its value is 80.2 nmol/mg Protein/72 hours and 43.6 nmol/mg Protein/72 hours and 48.2 nmol/mg Protein/72 hours.

Question: And the “AVG. Ratio: C5/C7” value ([6]; average over SCAD cell lines)?
Answer: The value was “AVG. 1.3”.

Question: What about the “AVG. Ratio: C5/C15” value ([6]; average over SCAD cell lines) of the same compound?
Answer: The value was “AVG. 1.4”.

Question: What about the “Ratio: C5/C7 (propionylcarnitine)” value [7, 16] of the same compound?
Answer: The value was 1.6 and 1.3.

Question: And the “Ratio: C5/C15 (propionylcarnitine)” value [7, 16]?
Answer: Its value is 1.2 and 1.4.

Question: What about the “Propionylcarnitine from oxidation of fatty acid” value ([7]; MTP fibroblasts, one line per patient, 72 hours incubation) of the same compound?
Answer: Its value is 38.3 nmol/mg Protein/72 hours and 63.6 nmol/mg Protein/72 hours.

Question: And the “AVG. Ratio: C5/C7” value ([7]; average over MTP cell lines)?
Answer: Its value is “AVG. 1.5”.

Question: What about the “AVG. Ratio: C5/C15” value ([7]; average over MTP cell lines) of the same compound?
Answer: Its value is “AVG. 1.3”.

Question: And the “Ratio: C5/C7 (propionylcarnitine)” value [8, 17]?
Answer: The value was 1.2 and 1.5 (2×) and 2.3 and 1.6.

Question: What about the “Ratio: C5/C15 (propionylcarnitine)” value [8, 17] of the same compound?
Answer: Its value is 1.9 and 2.3 and 2.2 and 3.5 and 2.6.

Question: And the “Propionylcarnitine from oxidation of fatty acid” value ([8]; LCHAD fibroblasts, one line per patient, 72 hours incubation)?
Answer: The value was 65.4 nmol/mg Protein/72 hours and 34.5 nmol/mg Protein/72 hours and 35.0 nmol/mg Protein/72 hours and 24.4 nmol/mg Protein/72 hours and 36.8 nmol/mg Protein/72 hours.

Question: What about the “AVG. Ratio: C5/C7” value ([8]; average over LCHAD cell lines) of the same compound?
Answer: The value was “AVG. 1.6”.

Question: And the “AVG. Ratio: C5/C15” value ([8]; average over LCHAD cell lines)?
Answer: Its value is “AVG. 2.5”.

Question: And the “Propionyl-CoA produced in culture (in words)” value ([9]; MCAD 1 and MCAD 2 cell lines, compared with normal)?
Answer: Its value is “normal or greater than normal”.

Question: And the “Propionylcarnitine from odd carbon precursor” value ([9]; MCAD-1 fibroblast cell line)?
Answer: Its value is 25.8 nmol/mg Protein/72 hours.

Question: And the “Propionylcarnitine from odd carbon precursor” value ([9]; MCAD-2 fibroblast cell line)?
Answer: Its value is 58.5 nmol/mg Protein/72 hours.

Question: What about the “Amount of C3 produced following the meal, C5 compared with C7” value [10] of the same compound?
Answer: Its value is “significantly greater”.

Question: And the “Limitation in oxidation of the meal triglyceride” value [10]?
Answer: Its value is “no limitation in oxidation”.

Question: And the “Change in C4 (butyrylcarnitine) during the meal” value ([10]; C4 already at very low levels)?
Answer: Its value is “no significant decrease in C4”.

Question: And the “Clinical or biochemical toxicity” value ([10]; meal test, 4 hours)?
Answer: The value was “no clinical or biochemical toxicity”.

Question: And the “Relative Blood Levels of Fatty Acid Chain Lengths: C3” value (shortened to “Relative Blood Levels … C3”) ([10]; time 0 hours)?
Answer: The value was 2.61.

Question: What about the “Relative Blood Levels of Fatty Acid Chain Lengths: C4 (butyrylcarnitine)” value (from here on “Relative Blood Levels … (butyrylcarnitine)”) ([10]; time 0 hours) of the same compound?
Answer: Its value is 0.30.

Question: What about the “Relative Blood Levels … C3” value ([10]; time 1 hours) of the same compound?
Answer: The value was 2.78.

Question: And the “Relative Blood Levels … (butyrylcarnitine)” value ([10]; time 1 hours)?
Answer: Its value is 0.26.

Question: And the “Relative Blood Levels … C3” value ([10]; time 2 hours)?
Answer: The value was 3.19.

Question: What about the “Relative Blood Levels … (butyrylcarnitine)” value ([10]; time 2 hours) of the same compound?
Answer: The value was 0.27.

Question: What about the “Relative Blood Levels … C3” value ([10]; time 3 hours) of the same compound?
Answer: Its value is 3.73.

Question: And the “Relative Blood Levels … (butyrylcarnitine)” value ([10]; time 3 hours)?
Answer: The value was 0.30.

Question: And the “Relative Blood Levels … C3” value ([10]; time 4 hours)?
Answer: Its value is 4.99.

Question: What about the “Relative Blood Levels … (butyrylcarnitine)” value ([10]; time 4 hours) of the same compound?
Answer: Its value is 0.27.
